{"source": "patent US9555061B2", "about": "“Synthesis and analysis of compounds capable of inducing differentiation of human mesenchymal stems cells into hepatocytes” (National University Corporation Torrori University, priority 2011, dated 2017)", "format_in_all_cases": "cell-based, human", "key": {"UE7T-13 cells": {"system": "UE7T-13 cells", "assay": "Hepatocyte differentiation induction, RT-PCR of albumin (UE7T-13)", "details": "15 μM", "description": "After 24 h, the medium was changed to a medium containing IC-2, etc. After that, the medium was changed twice a week, and the cells were subcultured once a week to adjust a cell number at 9.0×10^3 cells/cm^2. Total RNA was collected at days 8, 16, and 24 after the initiation of the induction.\nTotal RNA was extracted with a TRIzol reagent. After the extraction, in order to completely remove DNA, deoxyribonuclease was added and the mixture was incubated at 37° C. for 1 h. A SuperScript First-Stand Synthesis System for RT-PCR (Invitrogen) was used for reverse transcription, and an oligo dT primer was used to convert 1 μg of RNA into cDNA. To perform a PCR, the cDNA was diluted by 5 times and 1 μl of the cDNA was used. A recombinant Taq DNA polymerase (Invitrogen) was used for the PCR. With regard to primers for human albumin, 5′-[…]-3′ (SEQ ID NO: 1) and 5′-[…]-3′ (SEQ ID NO: 2) were used. The PCR involved 1 cycle of 95° C. for 2 min and 35 cycles of 95° C. for 30 sec, 58° C. for 30 sec, and 72° C. for 30 sec. Human glyceraldehyde 3-phosphate dehydrogenase (GAPDH) was used as an internal control. With regard to GAPDH primers, 5′-[…]-3′ (SEQ ID NO: 3) and 5′-[…]-3′ (SEQ ID NO: 4) were used. The PCR involved 1 cycle of 95° C. for 2 min and 20 cycles of 95° C. for 30 sec, 60° C. for 30 sec, and 72° C. for 30 sec. […]"}, "[1]": {"system": "CD90+CD271+ bone marrow-derived mesenchymal stem cells", "assay": "Urea assay in CD90+CD271+ bone marrow-derived mesenchymal stem cells", "details": "hexachlorophene 4 μM, PN-3-13 20 μM, IC-2 40 μM; day 8 plus 96 h ammonium chloride", "description": "A urea assay was performed according to the following protocol. CD90^+CD271^+ bone marrow-derived mesenchymal stem cells were seeded on a 24-well plate at a cell density of 1.8×10^4 cells/cm^2. This day was designated as day 0. At day 1 corresponding to the next day, each medium was changed to a medium containing hexachlorophene (at a final concentration of 4 μM), HC-2 (at a final concentration of 20 μM), PN-3-13 (at a final concentration of 20 μM), IC-2 (at a final concentration of 40 μM), or 0.1% DMSO. At day 4, the medium was changed in a manner similar to that at day 1, and the cells were cultured until day 8. At day 8, the medium was removed, and replaced with a medium containing ammonium chloride (Nacalai Tesque) at a final concentration of 5 mM. The cells were further cultured for 96 h. At 96 h after the addition of ammonium chloride, levels of urea in the medium were determined using a QuantiChrom Urea Assay Kit (BioAssay Systems) according to the attached protocol by reading the absorbance at a wavelength of 520 nm with a microplate reader. The levels of urea were calculated based on a standard sample according to the attached calculation method. As a negative control for the urea assay, used were CD90^+CD271^+ bone marrow-derived mesenchymal stem cells that were seeded one day before the day of the immunostaining and were not subjected to the differentiation induction."}, "[2]": {"system": "clinical specimen-derived mesenchymal stem cells", "assay": "RT-PCR of hepatocyte differentiation marker in clinical specimen-derived mesenchymal stem cells", "details": "hexachlorophene 4 μM, HC-2 20 μM, PN-3-13 20 μM, IC-2 40 μM", "description": "A fresh bone marrow aspirate was collected under informed consent from a patient (a person) with osteoarthritis who underwent replacement arthroplasty at the Department of Orthopedic Surgery, Tottori University Hospital. This aspirate was subjected to density gradient centrifugation using ficoll (Amersham Biosciences) to separate bone marrow mononuclear cells (FIG. 31). These bone marrow mononuclear cells were suspended in 1 ml of Hanks' balanced salt solution (HBSS, Gibco, Life Technologies Corp.) supplemented with a 100-fold diluted APC-labeled anti-CD90 antibody, a 407-fold diluted PE-labeled anti-CD271 antibody, and 2% fetal bovine serum (FBS, Defined, Thermo Fisher Scientific Inc.), and were stained on ice for 30 min. A flow cytometer (MoFlo XDP, Beckman Coulter Inc.) was used to selectively separate mesenchymal stem cells. The resulting cells were cultured in Dulbecco's Modified Eagle's Medium (Low Glucose, Gibco, Life Technologies Corp.) containing 20% FBS, 100 U/ml penicillin, […] streptomycin (Nacalai Tesque), and 20 ng/ml basic fibroblast growth factor (TRANS GENIC INC., Ltd.) on a 35-mm dish under conditions at 37° C. and 5% CO2. The medium was changed every 4 days. After colonies were formed, the cells were detached using a 0.025% trypsin/1 mM EDTA solution (Nacalai Tesque), split on a 100-mm dish, and cultured under conditions at 37° C. and 5% CO2. Then, the cells which were kept 70 to 80% confluent were detached using trypsin treatment. These cells in one dish were divided into four dishes for passage.\nCells were seeded on a 6-well plate at a cell density of 1.8×10^4 cells/cm^2. This day was designated as day 0. At day 1 corresponding to the next day, the medium was changed to a medium containing any one of hexachlorophene (at a final concentration of 4 μM), HC-2 (at a final concentration of 20 μM), PN-3-13 (at a final concentration of 20 μM), IC-2 (at a final concentration of 40 μM), and 0.1% DMSO. […]"}}, "data": [{"substance": "(6S,9aS)-6-phenyl-8-naphthalen-1-ylmethyl-4,7-dioxo-hexahydro-pyrazino[1,2-a]pyrimidine-1-carbocylic acid benzylamide [IC-2]", "values": [{"measurement": "levels of the albumin expression", "setting": "UE7T-13 cells", "value": "particularly high"}, {"measurement": "cellular urea synthesis compared with negative control (0.1% DMSO)", "setting": "[1]", "value": "apparent increase"}, {"measurement": "expression of albumin", "setting": "[2]", "value": "induced"}]}]}
